From publication PMC12736086, “Synthesis and In Vitro Evaluation of Anticancer Activity of Fluorophenyl Derivatives of 1,3,4-Thiadiazole Against Estrogen-Dependent Breast Cancer” (Molecules, 2025)

Tests used:
MCF-7 cell line = test system: MCF-7 cell line; design: method as in PMID 35335177; details: MCF-7, previous study; cited from earlier work
[1] = test system: MDA-MB-231 (triple-negative) breast cancer cell line; assay: MTT assay, cell viability of MDA-MB-231 cells; format: cell-based, human; details: 24 h exposure
Description: (§1) To investigate how the tested compounds affect cell viability, experiments were performed using two human breast cancer cell lines—MDA-MB-231 and MCF-7 and human fibroblasts—HMF (normal cells). The MDA-MB-231 cell line represents a highly invasive, triple-negative breast cancer (TNBC) model, lacking estrogen receptor (ER), progesterone receptor (PR), and HER2 expression. In contrast, MCF-7 cells are estrogen receptor-positive (ER+), less invasive, and hormone-responsive, making them a well-established model for luminal-type breast cancer and hormone therapy research. Anastrozole, an aromatase inhibitor, served as a reference drug. The MTT assay applied in this study relies on mitochondrial dehydrogenase enzymes to reduce a water-soluble […] tetrazolium salt (3-(4,5-dimethylthiazol-2-yl)-2,5-diphenyltetrazolium bromide, or MTT) into a dark blue, insoluble formazan compound. The amount of this formazan product formed is directly related to the mitochondrial activity of viable, metabolically active cells in the sample. The efficacy of the compounds was assessed based on IC50 values and analysis of the concentration-dependence of cell survival.
(§2) The experiments were conducted using MDA-MB-231 and MCF-7 human breast cancer cell lines, as well as human fibroblasts (HMF). All cell lines were sourced from the American Type Culture Collection (ATCC; Manassas, VA, USA). Cells were maintained under standard culture conditions (37 °C, 5% CO2). Breast cancer cells were grown in Dulbecco’s Modified Eagle Medium (DMEM) supplemented with 10% fetal bovine serum (FBS), while fibroblasts were cultured in Eagle’s Minimum Essential Medium (EMEM) with the same serum concentration. To prevent microbial contamination, penicillin (100 U/mL) and streptomycin (100 µg/mL) were added to the media. All cell culture reagents were obtained from Sigma Aldrich (St. Louis, MO, USA).
(§3) Cell viability was evaluated using the MTT assay kit (Sigma Aldrich, St. Louis, MO, USA). On day one of the experiment, MCF-7, MDA-MB-231 cells and human fibroblasts were seeded into 96-well culture plates (Nunc, Roskilde, Denmark) at a density of 1 × 10^5 cells/mL (human fibroblast cell line) and 5 × 10^4 cells/mL (MCF-7, MDA-MB-231 cell lines). After 24 h of incubation, the culture medium was removed and replaced with serial dilutions of test compounds or anastrozole (1, 12.5, 25, 50, 100 µM). Control wells received fresh medium only. Cells were incubated for another 24 h under standard conditions. Following this, 15 µL of MTT solution (5 mg/mL) was added to each well and incubated for 3 h. Afterward, a 10% sodium dodecyl sulfate (SDS) solution was added, and the plates were left overnight. On the following day, absorbance was measured at 570 nm using a microplate reader (Epoch, BioTek Instruments, Inc., Winooski, VT, USA) with Gen5 software (version 2.01, BioTek Instruments).
(§4) Data were analyzed using GraphPad software version 5.01 (GraphPad Software, Inc., La Jolla, CA, USA). Results are expressed as means ± standard deviation (±SD). IC50 values were calculated using the IC50 calculator provided by AAT Bioquest.

human fibroblasts (HMF) = assay: MTT assay, cell viability of normal HMF fibroblasts; format: cell-based; details: Fibroblast, 24 h, 24 h exposure
Description: as §1, §2, §3, §4

[2] = test system: MCF-7 (estrogen-dependent) breast cancer cell line; assay: MTT assay, cell viability of MCF-7 cells; format: cell-based; details: Homo sapiens, MCF7, 24 h, 24 h exposure
Description: as §1, §2, §3, §4

IC50 ([1]; Homo sapiens, MDA-MB-231, 24 h) [µM]	IC50 [2] [µM]	IC50 [1] [µM]	Structure (SMILES)	IC50 (MCF-7 cell line) [µM]	IC50 (human fibroblasts (HMF)) [µM]
			COc1cccc(-c2nnc(Nc3ccccc3C(F)(F)F)s2)c1 [2-(2-trifluoromethylphenylamino)-5-(3-methoxyphenyl)-1,3,4-thiadiazole]	49.6	
> 100	66		Fc1cccc(-c2nnc(Nc3ccccc3I)s2)c1 [A1, 5-(3-Fluorophenyl)-2-(2-iodophenylamino)-1,3,4-thiadiazole]		51
> 100	52.4		Fc1cccc(-c2nnc(Nc3ccccc3Br)s2)c1 [A2, 2-(2-Bromophenylamino)-5-(3-fluorophenyl)-1,3,4-thiadiazole]		36.5
> 100	54.8		Fc1cccc(-c2nnc(Nc3ccccc3Cl)s2)c1 [A3, 2-(2-Chlorophenylamino)-5-(3-fluorophenyl)-1,3,4-thiadiazole]		36.9
≥ 100	> 100	> 100	CC(C)(C#N)c1cc(Cn2cncn2)cc(C(C)(C)C#N)c1 [Anastrozole, reference compound]		> 100
> 100	53.9		Fc1ccc(-c2nnc(Nc3ccccc3I)s2)cc1 [B1, 5-(4-Fluorophenyl)-2-(2-iodophenylamino)-1,3,4-thiadiazole]		45.6
> 100	82.5		Fc1ccc(-c2nnc(Nc3ccccc3Br)s2)cc1 [B2, 2-(2-Bromophenylamino)-5-(4-fluorophenyl)-1,3,4-thiadiazole]		41.8
> 100	54.1		Fc1ccc(-c2nnc(Nc3ccccc3Cl)s2)cc1 [B3, 2-(2-Chlorophenylamino)-5-(4-fluorophenyl)-1,3,4-thiadiazole]		> 100
